# Assay results: patent US20070185079A1, “Therapeutic agents I” (ASTRAZENECA AB, priority 2004, published 2007)
# Molecular target: T1, human Melanin concentrating hormone receptor 1 (MCH1r) (Homo sapiens, UniProt Q99705)
# T1 construct: expressed in transfected cells; host or cells: CHO-K1
# Assay: MCH1 receptor radioligand binding, membranes from CHO-K1 cells, 125I-MCH
# Conditions: CHO-K1 cell membranes expressing human MCH1r, 30° C., 60 minutes, read-out: IC50 in human MCHr binding assay
# Method: MCH1 Receptor Radioligand Binding.
# Assays were performed on membranes prepared from CHO-K1 cells expressing the human Melanin concentrating hormone receptor 1 (MCH1r). Assays were performed in a 96-well plate format in a final reaction volume of 200 μl per well. Each well contained 6 μg of membrane proteins diluted in binding buffer (50 mM Tris, 3 mM MgCl2, 0.05% bovine serum albumin (BSA) and the radioligand ^125I-MCH (IM344 Amersham) was added to give 10 000 cpm (counts per minute) per well. Each well contained 2 μl of the appropriate concentration of competitive antagonist prepared in DMSO and left to stand at 30° C. for 60 minutes. Non-specific binding was determined as that remaining following incubation with 1 μM MCH (Melanin concentrating hormone, H-1482 Bachem). The reaction was terminated by transfer of the reaction to GF/A filters using a Micro96 Harvester (Skatron Instruments, Norway). Filters were washed with assay buffer. Radioligand retained on the filters was quantified using a1450 Microbeta TRILUX (Wallac , Finland).
# (§1) Non-specific binding was subtracted from all values determined. Maximum binding was that determined in the absence of any competitor following subtraction of the value determined for non-specific binding. Binding of compounds at various concentrations was plotted according to the equation y=A+((B−A)/1+((C/x)ˆAD))) and IC50 estimated where • A is the bottom plateau of the curve i.e. the final minimum y value • B is the top of the plateau of the curve i.e. the final maximum y value • C is the x value at the middle of the curve. This represents the log EC50 value when A+B=100 • D is the slope factor. x is the original known x values. y is the original known y values.
# T1 sequence (Q99705 whole entry): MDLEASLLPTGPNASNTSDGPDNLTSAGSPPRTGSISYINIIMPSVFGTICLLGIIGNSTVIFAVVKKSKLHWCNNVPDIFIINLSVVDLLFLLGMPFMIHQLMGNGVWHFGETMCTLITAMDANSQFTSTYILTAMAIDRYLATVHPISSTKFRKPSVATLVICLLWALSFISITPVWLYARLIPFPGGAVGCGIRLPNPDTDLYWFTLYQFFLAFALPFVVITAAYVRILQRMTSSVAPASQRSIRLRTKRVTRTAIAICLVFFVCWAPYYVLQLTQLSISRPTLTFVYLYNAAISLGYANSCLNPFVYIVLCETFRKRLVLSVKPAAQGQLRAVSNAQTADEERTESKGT
row,SMILES,IC50 [nM]
1,"COc1cc(N[C@H]2CCC[C@H](NCc3ccsc3)C2)nc2ccc(F)cc12 [Example 5, (1S3S)-N-(6-fluoro-4-methoxyquinolin-2-yl)-N′-(3-thienylmethyl)cyclohexane-1,3-diamine]",26
2,"COc1ccc2nc(N[C@H]3CC[C@H](NCc4ccc(-c5cccs5)s4)C3)cc(C)c2c1 [Example 16, (1S,3S)-N-(2,2′-bithien-5-ylmethyl)-N′-(6-methoxy-4-methylquinolin-2-yl)cyclopentane-1,3-diamine]",94
3,"COc1ccc2nc(N3CC4CCC(C3)C4N(C)Cc3ccsc3)cc(C)c2c1 (stereo not drawn) [Example 20, 3-(6-Methoxy-4-methylquinolin-2-yl)-N-methyl-N-(3-thienylmethyl)-3-azabicyclo [3.2.1]octan-8-amine]",560
4,"COc1ccc2c(C)cc(N[C@H]3C[C@@H]4C[C@H]3[C@@H](NCc3cn(C)c5ccccc35)C4)nc2c1 [Example 32, (1S,2S,4R,6S)-N-(7-methoxy-4-methylquinolin-2-yl)-N′-[(1-methyl-1H-indol-3-yl)methyl]bicyclo[2.2.1]heptane-2,6-diamine]",44
5,"Cc1cc(N[C@H]2CC[C@H](NCc3cn(C)c4cnccc34)C2)nc2ccc(F)cc12 [Example 35, (1S,3S)-N-(6-Fluoro-4-methylquinolin-2-yl)-N′-[(1-methyl-1H-pyrrolo[2,3-c]pyridin-3-yl)methyl]cyclopentane-1,3-diamine]",830

# Molecular target: T2, rat Melanin concentrating hormone receptor 1 (MCH1r) (Rattus norvegicus, UniProt P97639)
# T2 construct: expressed in transfected cells
# T2 sequence (P97639 whole entry): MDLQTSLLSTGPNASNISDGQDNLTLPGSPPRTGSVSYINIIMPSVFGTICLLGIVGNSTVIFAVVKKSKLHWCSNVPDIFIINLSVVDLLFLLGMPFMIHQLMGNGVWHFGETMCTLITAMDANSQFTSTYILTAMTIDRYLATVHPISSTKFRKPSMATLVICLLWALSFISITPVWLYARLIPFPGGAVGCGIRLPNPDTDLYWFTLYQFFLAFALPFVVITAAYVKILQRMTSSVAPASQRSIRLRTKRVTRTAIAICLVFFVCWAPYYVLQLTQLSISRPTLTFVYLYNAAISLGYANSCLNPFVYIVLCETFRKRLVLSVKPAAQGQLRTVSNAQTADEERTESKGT
# Assay: MCH1 receptor radioligand binding, membranes from HEK293 cells, 125I-MCH
# Conditions: HEK293 cell membranes stably expressing rat MCH1r, room temperature, 60 minutes
# Text: as §1
# Assays were also performed on membranes prepared from HEK293 cells stably expressing the rat Melanin concentrating hormone receptor 1 (MCH1r) (Lembo et al. Nature Cell Biol 1 267-271). Assays were performed in a 96-well plate format in a final reaction volume of 200 μl per well. […] Radioligand retained on the filters was quantified using a1450 Microbeta TRILUX (Wallac, Finland).
row,SMILES,IC50 [nM]
1,"Cc1cc(N[C@H]2CC[C@H](NCc3cn(C)c4ccccc34)C2)nc2ccc(F)cc12 [Example 6, (1S,3S)-N-(6-fluoro-4-methylquinolin-2-yl)-N′-[(1-methyl-1H-indol-3-yl)methyl]cyclopentane-1,3-diamine]",79
